Experimental data reported in PubChem BioAssay (NCI).
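Following 48 hours of exposure in 96-well plates, responses at five concentrations were used to interpolate endpoints linearly. The concentration for full growth arrest is given as TGI.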 Where a SMILES comes first, the peptide text is derived from it. The star is where a group is joined. Cbz = O=C(OCc1ccccc1)*; OBn = c1ccc(CO*)cc1

Key:
Assay in all cases: NCI anticancer screen, dose series, 48 h
[1] = test system: RPMI-8226 leukemia
[2] = test system: NCI-H460 lung
[3] = test system: OVCAR-5 ovarian
[4] = test system: SK-MEL-28 melanoma
[5] = test system: M14 melanoma
[6] = test system: LOX IMVI melanoma
[7] = test system: SNB-75 CNS
[8] = test system: KM12 colon
[9] = test system: MCF7 breast
[10] = test system: MOLT-4 leukemia

Measured: TGI

Cc1cccc(C2=NC(C)(C)C(C)(C)N=C2c2cccc(C)n2)n1
not listed: [9] | [10]
> 100 µM: all other assays above

Oc1[nH]c2ccccc2c1N=Nc1nc(-c2ccc(Cl)c(Cl)c2)cs1
not listed: [1]
> 100 µM: all other assays above

CSC1=C(C#N)C(=O)N(c2ccc(C)cc2)C(=S)C1C#N (centres undefined)
not listed: [1]
> 100 µM: all other assays above

[N-]=[N+]=NCc1cccc(Nc2cc(=O)[nH]c(=O)[nH]2)c1
not listed: [2]
> 100 µM: all other assays above

N#Cc1c(N2CCCC2)ncn(Cc2ccccc2)c1=O
not listed: [9]
> 100 µM: all other assays above

O=C1COc2ccc([N+](=O)[O-])cc2C(=O)C1
not listed: [7]
> 10 µM: all other assays above

[N-]=[N+]=CC(=O)OCC1SCCCS1
not listed: [5] | [7]
> 100 µM: all other assays above

C/C(=N\NC(N)=S)C(CN(CC(C)C)CC(C)C)C(=O)Nc1ccc(C)cc1C (centres undefined)
not listed: [1] | [9]
> 100 µM: all other assays above

COc1cccc(Cc2c3cc(OC)ccc3cc[n+]2C)c1
not listed: [6] | [9]
> 100 µM: all other assays above

c1ccc2c(c1)nc(NC1CCCC1)c1[nH]c(C3CCCC3)nc12
> 41.7 µM: [10]
> 100 µM: [7]
10 µM: [5]
27.1 µM: [2]
28.3 µM: [4]
30.6 µM: [6]
> 67.9 µM: [1]
21.3 µM: [8]
61.1 µM: [3]

COC(=O)C(Cc1ccc(O)cc1)NC(=O)C(CC(=O)OCc1ccccc1)NC(=O)OCc1ccccc1 (centres undefined) (Cbz-Asp(OBn)-Tyr-OMe; configuration not given here)
32.6 µM: [7]
43.2 µM: [3]
31.3 µM: [4]
39.5 µM: [8]
25.9 µM: [2]
44.4 µM: [5]
61.5 µM: [10]
49.8 µM: [1]

COC(=O)c1cc(C#N)[nH]c1-c1ccc(C)s1
not listed: [6] | [9]
> 100 µM: all other assays above

CCOC(=O)/C=C(\C(=O)OCC)n1ccc(N)nc1=O
not listed: [4]
> 100 µM: all other assays above

OC1(c2cc3ccccc3s2)CCCCC1
67.4 µM: [10]
not listed: [1]
> 100 µM: all other assays above

c1ccc2c(c1)CCc1cc3cc4c(nc3nc1-2)-c1ccccc1CC4
not listed: [3] | [9]
> 100 µM: all other assays above

NCCNc1cccc2ccccc12
> 100 µM: [1] | [2] | [3] | [5] | [6] | [8]

CC(C)c1ccc(/C=C2\CSCC3=C2NC(=S)NC3c2ccc(C(C)C)cc2)cc1 (centres undefined)
not listed: [7]
> 100 µM: all other assays above

O=c1[nH]nc(-c2ccccc2)n1/N=C/c1c(O)ccc2ccccc12
93.6 µM: [7]
not listed: [2]
> 100 µM: all other assays above

O=C(CCCCCCCCC(=O)N1C(=O)CC(=O)N(c2cccc(Cl)c2)C1=S)N1C(=O)CC(=O)N(c2cccc(Cl)c2)C1=S
70.6 µM: [10]
not listed: [4]
> 100 µM: all other assays above

O=c1c(C=Nc2ccc([N+](=O)[O-])cc2)c(O)n(-c2ccccc2)c(=O)n1-c1ccccc1
not listed: [4]
> 100 µM: all other assays above

Cc1ccc(N2CCc3c(C)c(C#N)c4nc5ccccc5n4c32)cc1
62 µM: [7]
> 100 µM: [2] | [3] | [4] | [9] | [6]

O=C1Cc2c([nH]c3ccc(Br)cc23)-c2ccccc2N1
not listed: [9]
> 100 µM: all other assays above

C=C(CC[C@@H](C(=O)O)[C@H]1[C@H](O)C[C@@]2(C)C3=CC[C@@H](C(=C)C)[C@](C)(CCC(=O)O)C3=CC[C@]12C)C(C)C
64.4 µM: [10]
40 µM: [4]
32.6 µM: [9] | [8]
34.7 µM: [2]
38.4 µM: [6]
30.5 µM: [3]
32.7 µM: [5]
36.5 µM: [7]
